Reference: US20050282743A1, “Molecular interactions in cells” (Arbor Vita Corporation, priority 2001, published 2005)
pKd: −log10 of the molar value. Where two headings read alike, the source gives them in different places. Ends that are not written are not given here. Peptide text beside a SMILES is read from it. * marks the point of attachment. Biotin = O=C1N[C@H]2[C@H](CS[C@H]2CCCCC(=O)*)N1

How the values were obtained:
Format in all cases: binding
[1] = target: PDZ-domain polypeptide (GST/PDZ fusion protein); test: Apparent affinity (Kd) by titration of PL peptide in the G assay
How it was run: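 A fixed concentration of GST/PDZ fusion protein, 5 ug/ml by default, was mixed in solution with increasing labeled PL peptide (e.g. 0.1 uM-1 mM). Reaction times ranged from 10 minutes to 2 days at 4-37° C. Complexes were separated from free peptide and detected via the label as in the G assay, apparent affinity coming from the saturating concentration.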

[2] = target: T1, PDZ protein (GST-PDZ fusion) (Homo sapiens, UniProt O14641); test: G' assay (10 uM PL peptide), results of TABLE 7 and TABLE 12; settings: PDZ DVL2, PDZ Domain 1
T1 construct: made in house; host or cells: E. coli (DH5alpha, BL21 or JM109)
T1 sequence (O14641 1-736): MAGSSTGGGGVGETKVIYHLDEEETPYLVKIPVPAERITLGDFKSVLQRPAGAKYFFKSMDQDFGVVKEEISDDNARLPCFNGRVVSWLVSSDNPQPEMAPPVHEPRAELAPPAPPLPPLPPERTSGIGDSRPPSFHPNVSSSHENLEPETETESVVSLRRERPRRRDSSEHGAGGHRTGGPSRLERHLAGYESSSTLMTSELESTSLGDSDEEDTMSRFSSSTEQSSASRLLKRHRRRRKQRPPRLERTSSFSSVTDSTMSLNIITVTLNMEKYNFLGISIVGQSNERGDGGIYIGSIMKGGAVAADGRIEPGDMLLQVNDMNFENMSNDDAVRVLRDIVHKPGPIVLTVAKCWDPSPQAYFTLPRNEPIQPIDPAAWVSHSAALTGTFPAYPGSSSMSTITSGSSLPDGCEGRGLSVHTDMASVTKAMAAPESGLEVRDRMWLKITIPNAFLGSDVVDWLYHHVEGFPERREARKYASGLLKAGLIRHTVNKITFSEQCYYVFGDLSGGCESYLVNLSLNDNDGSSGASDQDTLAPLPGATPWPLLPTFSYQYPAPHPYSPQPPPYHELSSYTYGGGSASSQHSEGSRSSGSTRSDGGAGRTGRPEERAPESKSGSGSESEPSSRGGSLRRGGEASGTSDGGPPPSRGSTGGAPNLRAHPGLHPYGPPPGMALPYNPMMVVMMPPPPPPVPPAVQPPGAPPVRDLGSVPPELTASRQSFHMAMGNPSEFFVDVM
How it was run: (§1)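 Biotin-PL peptide (N-term label), 10 uM vs GST-PDZ; protein 5 ug/ml by default. A450 nm binned: 1 = 0-1, 2 = 1-2, 3 = 2-3, 4 = 3-4, 5 = >4 on >2 repeats, 0 = no binding.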

[3] = target: T2, PDZ protein (GST-PDZ fusion) (Homo sapiens, UniProt O15085); test: as above; settings: PDZ KIAA0380, PDZ Domain 1
T2 construct: made in house; host or cells: E. coli (DH5alpha, BL21 or JM109)
How it was run: as §1

[4] = target: T3, PDZ protein (GST-PDZ fusion) (Homo sapiens, UniProt Q12959); test: as above
T3 construct: made in house; host or cells: E. coli (DH5alpha, BL21 or JM109)
How it was run: as §1

[5] = target: T4, KIAA0807(S) (PDZ Domain 1) (Homo sapiens, UniProt Q6P0Q8); test: G' assay and Kd titration, TABLE 12; settings: A450 nm class of biotinylated PL peptide bound; 0 in conc columns = peptide 10 uM, protein 5 ug/ml
T4 construct: made in house; host or cells: E. coli (DH5alpha, BL21 or JM109)
T4 sequence (Q6P0Q8 with tags, fused parts or gaps): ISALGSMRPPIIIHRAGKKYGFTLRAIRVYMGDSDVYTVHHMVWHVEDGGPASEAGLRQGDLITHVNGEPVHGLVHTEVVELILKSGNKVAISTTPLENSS

T3 sequence (Q12959 whole entry, the tested form may be a part): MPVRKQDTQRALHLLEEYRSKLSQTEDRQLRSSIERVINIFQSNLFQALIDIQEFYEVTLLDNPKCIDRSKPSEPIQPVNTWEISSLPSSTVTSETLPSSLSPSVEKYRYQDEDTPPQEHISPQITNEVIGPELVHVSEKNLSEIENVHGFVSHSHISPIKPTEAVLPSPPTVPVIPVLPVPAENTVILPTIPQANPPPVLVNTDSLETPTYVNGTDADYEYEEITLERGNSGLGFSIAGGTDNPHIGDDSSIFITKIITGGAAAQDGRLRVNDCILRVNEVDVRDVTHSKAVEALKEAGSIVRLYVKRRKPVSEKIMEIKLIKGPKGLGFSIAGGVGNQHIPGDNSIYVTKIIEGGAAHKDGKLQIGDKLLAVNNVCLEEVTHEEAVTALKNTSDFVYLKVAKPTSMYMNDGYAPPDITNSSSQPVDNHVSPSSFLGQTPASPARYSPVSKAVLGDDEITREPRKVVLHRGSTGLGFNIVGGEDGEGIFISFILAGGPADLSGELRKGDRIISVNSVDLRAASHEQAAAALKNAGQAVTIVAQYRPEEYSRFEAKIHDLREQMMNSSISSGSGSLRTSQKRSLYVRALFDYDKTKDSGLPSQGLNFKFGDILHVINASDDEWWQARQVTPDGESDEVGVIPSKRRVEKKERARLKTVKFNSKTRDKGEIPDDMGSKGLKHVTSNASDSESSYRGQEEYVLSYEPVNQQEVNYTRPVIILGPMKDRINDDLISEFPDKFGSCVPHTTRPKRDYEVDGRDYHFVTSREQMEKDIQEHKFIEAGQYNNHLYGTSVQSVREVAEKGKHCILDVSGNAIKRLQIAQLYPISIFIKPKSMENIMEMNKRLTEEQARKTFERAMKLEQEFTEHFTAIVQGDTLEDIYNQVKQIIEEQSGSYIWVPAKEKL
T2 sequence (O15085 whole entry, the tested form may be a part): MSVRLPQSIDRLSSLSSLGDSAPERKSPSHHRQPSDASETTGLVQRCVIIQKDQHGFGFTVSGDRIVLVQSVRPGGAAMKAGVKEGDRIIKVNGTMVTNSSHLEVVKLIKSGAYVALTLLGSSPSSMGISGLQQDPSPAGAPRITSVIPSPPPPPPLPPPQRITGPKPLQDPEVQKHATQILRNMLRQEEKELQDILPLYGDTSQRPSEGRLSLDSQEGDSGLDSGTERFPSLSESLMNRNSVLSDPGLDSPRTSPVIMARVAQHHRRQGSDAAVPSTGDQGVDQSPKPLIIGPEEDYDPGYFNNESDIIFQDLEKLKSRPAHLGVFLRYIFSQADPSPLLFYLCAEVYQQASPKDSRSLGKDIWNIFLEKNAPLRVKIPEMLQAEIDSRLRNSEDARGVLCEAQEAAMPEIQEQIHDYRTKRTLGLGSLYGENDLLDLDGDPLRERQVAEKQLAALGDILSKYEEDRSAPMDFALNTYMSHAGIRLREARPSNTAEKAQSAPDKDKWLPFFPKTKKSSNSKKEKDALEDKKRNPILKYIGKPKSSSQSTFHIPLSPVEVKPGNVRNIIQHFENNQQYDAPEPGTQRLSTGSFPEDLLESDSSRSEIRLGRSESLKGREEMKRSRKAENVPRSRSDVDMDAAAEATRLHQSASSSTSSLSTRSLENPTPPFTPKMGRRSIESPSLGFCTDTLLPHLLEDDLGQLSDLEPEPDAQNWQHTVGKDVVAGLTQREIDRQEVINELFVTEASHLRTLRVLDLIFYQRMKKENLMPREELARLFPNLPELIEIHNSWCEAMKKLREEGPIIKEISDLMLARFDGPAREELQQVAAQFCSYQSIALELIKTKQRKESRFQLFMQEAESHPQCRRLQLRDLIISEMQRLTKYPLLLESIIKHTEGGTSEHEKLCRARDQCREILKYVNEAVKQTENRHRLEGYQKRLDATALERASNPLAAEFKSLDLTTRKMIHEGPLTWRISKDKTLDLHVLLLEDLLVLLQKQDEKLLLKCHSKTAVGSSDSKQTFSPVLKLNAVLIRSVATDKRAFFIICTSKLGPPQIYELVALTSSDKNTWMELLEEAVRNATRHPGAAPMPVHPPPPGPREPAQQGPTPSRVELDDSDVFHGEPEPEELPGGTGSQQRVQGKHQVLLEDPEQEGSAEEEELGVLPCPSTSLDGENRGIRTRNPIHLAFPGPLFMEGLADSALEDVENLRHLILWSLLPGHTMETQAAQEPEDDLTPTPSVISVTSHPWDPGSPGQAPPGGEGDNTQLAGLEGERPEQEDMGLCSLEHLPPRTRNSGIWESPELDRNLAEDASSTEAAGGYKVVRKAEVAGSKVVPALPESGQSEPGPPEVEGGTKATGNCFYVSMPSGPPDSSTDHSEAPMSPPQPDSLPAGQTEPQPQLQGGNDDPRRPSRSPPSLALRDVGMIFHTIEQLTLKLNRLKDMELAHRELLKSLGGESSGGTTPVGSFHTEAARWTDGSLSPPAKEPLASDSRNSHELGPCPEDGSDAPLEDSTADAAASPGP

| Compound | Classification [2] | Classification [3] | Classification ([4]; PDZ DLG1, PDZ Domain 1) | Classification ([4]; PDZ DLG1, PDZ Domain 2) | other results |
| --- | --- | --- | --- | --- | --- |
| CC[C@H](C)[C@H](NC(=O)[C@H](Cc1ccc(O)cc1)NC(=O)[C@H](CC(C)C)NC(=O)[C@H](CCC(N)=O)NC(=O)[C@H](Cc1c[nH]cn1)NC(=O)[C@H](CO)NC(=O)[C@H](C)NC(=O)[C@H](CC(C)C)NC(=O)[C@@H](NC(=O)[C@H](CC(=O)O)NC(=O)[C@H](CCSC)NC(=O)[C@H](Cc1ccccc1)NC(=O)[C@@H]1CCCN1C(=O)[C@H](CCCNC(=N)N)NC(=O)[C@@H](NC(=O)[C@H](CC(C)C)NC(=O)[C@H](CC(N)=O)NC(=O)[C@H](CC(=O)O)NC(=O)[C@@H](NC(=O)[C@H](CO)NC(=O)CCCC[C@@H]1SC[C@@H]2NC(=O)N[C@@H]21)[C@@H](C)O)C(C)C)[C@@H](C)O)C(=O)O [presenilin-2] (Biotin-STDNLVRPFMDTLASHQLYI-OH; C-terminus assumed) | 1 (A450 nm 0-1) | – | – | – | pKd ([1]; PDZ HEMBA 1003117, PDZ Domain 1, titration of the PL peptide, read-out: Peptide Optimal Conc (Kd, dissociation constant)): 5.40 |
| KTMPAATYRLLTGQEQPVYL (Biotin-KTMPAATYRLLTGQEQPVYL) [MINT-3] | 1 (A450 nm 0-1) | – | – | – | – |
| A2AC_HUMAN (Modified) (Biotin-DFRPSFKHILFRRARRGFRQ; not fully specified) | 3 (A450 nm 2-3) | – | – | – | – |
| CC(C)C[C@H](NC(=O)[C@H](C)NC(=O)[C@@H](NC(=O)[C@H](CCC(=O)O)NC(=O)[C@H](CCCNC(=N)N)NC(=O)[C@H](CCCNC(=N)N)NC(=O)CNC(=O)[C@H](CCC(N)=O)NC(=O)[C@H](CC(C)C)NC(=O)[C@H](CCCNC(=N)N)NC(=O)CNC(=O)CNC(=O)[C@H](CCCNC(=N)N)NC(=O)[C@H](C)NC(=O)[C@H](CO)NC(=O)[C@H](CCCNC(=N)N)NC(=O)CNC(=O)CNC(=O)[C@H](C)NC(=O)[C@H](C)NC(=O)CCCC[C@@H]1SC[C@@H]2NC(=O)N[C@@H]21)[C@@H](C)O)C(=O)O [HPV E6 33 (modified)] (Biotin-AAGGRSARGGRLQGRRETAL-OH; C-terminus assumed) | – | 1 (A450 nm 0-1) | 3 (A450 nm 2-3) | 5 (A450 nm of 4 more than 2× repeated) | – |
| ELLQFCRTPNPALKNGQYWV (Biotin-ELLQFCRTPNPALKNGQYWV) | 5 (A450 nm of 4 more than 2× repeated) | – | – | – | – |
| CSCC[C@H](NC(=O)[C@H](C)NC(=O)[C@H](CCCNC(=N)N)NC(=O)CNC(=O)[C@@H](NC(=O)[C@H](Cc1c[nH]c2ccccc12)NC(=O)[C@H](CCCNC(=N)N)NC(=O)CNC(=O)CCCC[C@@H]1SC[C@@H]2NC(=O)N[C@@H]21)[C@@H](C)O)C(=O)N[C@@H](CO)C(=O)N[C@@H](C)C(=O)N[C@@H](Cc1c[nH]c2ccccc12)C(=O)N[C@@H](CCCCN)C(=O)N1CCC[C@H]1C(=O)N[C@H](C(=O)N[C@@H](CCCNC(=N)N)C(=O)N[C@@H](CCCNC(=N)N)C(=O)N[C@@H](CCC(=O)O)C(=O)N[C@H](C(=O)N[C@@H](CCC(=O)O)C(=O)N[C@H](C(=O)O)C(C)C)[C@@H](C)O)[C@@H](C)O [HPV E6 #35 (modified)] (Biotin-GRWTGRAMSAWKPTRRETEV-OH; C-terminus assumed) | – | 3 (A450 nm 2-3) | 5 (A450 nm of 4 more than 2× repeated) | 5 (A450 nm of 4 more than 2× repeated) | pKd ([1]; PDZ FLJ 00011, PDZ Domain 1, read-out: Peptide Optimal Conc (Kd by titration of the PL peptide)): 6.46; Classification ([4]; PDZ DLG1, PDZ Domain 1, 2): 5 (A450 nm of 4 more than 2× repeated); Classification ([4]; PDZ DLG1, PDZ Domain 3): 3 (A450 nm 2-3) |
| ALVLIAFCIIRRRPSAYQAL (Biotin-ALVLIAFCIIRRRPSAYQAL) [CD68] | 2 (A450 nm 1-2) | – | – | – | – |
| ARHRVTSYTSSSVNVSSNL (Biotin-ARHRVTSYTSSSVNVSSNL) [IL-8RB] | – | 1 (A450 nm 0-1) | – | – | Classification [5]: 1 (A450 nm 0-1) |
| TQGFPGPATWRRISSLESEV | – | 1 (A450 nm 0-1) | 5 (A450 nm of 4 more than 2× repeated) | 5 (A450 nm of 4 more than 2× repeated) | Classification ([4]; PDZ DLG1, PDZ Domain 1, 2): 5 (A450 nm of 4 more than 2× repeated) |
| CC[C@H](C)[C@H](NC(=O)[C@H](Cc1ccc(O)cc1)NC(=O)[C@@H](NC(=O)[C@@H]1CCCN1C(=O)[C@H](CCC(N)=O)NC(=O)[C@H](CCC(=O)O)NC(=O)[C@H](CCC(N)=O)NC(=O)[C@H](C)NC(=O)[C@@H](NC(=O)[C@H](CC(C)C)NC(=O)[C@H](CC(C)C)NC(=O)[C@H](CCCNC(=N)N)NC(=O)[C@H](Cc1ccc(O)cc1)NC(=O)[C@H](CCSC)NC(=O)[C@H](C)NC(=O)[C@H](C)NC(=O)[C@@H]1CCCN1C(=O)[C@H](CCSC)NC(=O)[C@@H](NC(=O)[C@H](CCCCN)NC(=O)CCCC[C@@H]1SC[C@@H]2NC(=O)N[C@@H]21)[C@@H](C)O)[C@@H](C)O)C(C)C)C(=O)O [MINT-1] (Biotin-KTMPAAMYRLLTAQEQPVYI-OH; C-terminus assumed) | 2 (A450 nm 1-2) | – | – | – | – |
| KTMPAAMFRLLTGQETPLYI (Biotin-KTMPAAMFRLLTGQETPLYI) [MINT-2] | 2 (A450 nm 1-2) | – | – | – | – |
| CC(C)C[C@H](NC(=O)[C@H](CCCNC(=N)N)NC(=O)CNC(=O)CNC(=O)[C@H](CCCNC(=N)N)NC(=O)[C@H](C)NC(=O)[C@@H]1CCCN1C(=O)[C@H](CCCNC(=N)N)NC(=O)CNC(=O)CNC(=O)[C@@H](NC(=O)[C@H](C)NC(=O)CCCC[C@@H]1SC[C@@H]2NC(=O)N[C@@H]21)C(C)C)C(=O)N[C@@H](CCC(N)=O)C(=O)NCC(=O)N[C@@H](CCCNC(=N)N)C(=O)N[C@@H](CCCNC(=N)N)C(=O)N[C@@H](CCC(N)=O)C(=O)N[C@H](C(=O)N[C@@H](CCC(N)=O)C(=O)N[C@H](C(=O)O)C(C)C)[C@@H](C)O [HPV E6 58 (modified)] (Biotin-AVGGRPARGGRLQGRRQTQV-OH; C-terminus assumed) | – | 1 (A450 nm 0-1) | 5 (A450 nm of 4 more than 2× repeated) | 5 (A450 nm of 4 more than 2× repeated) | – |
| CC(C)C[C@H](NC(=O)[C@H](CC(=O)O)NC(=O)[C@H](CO)NC(=O)[C@H](CCC(=O)O)NC(=O)CNC(=O)[C@H](Cc1ccc(O)cc1)NC(=O)[C@H](CC(C)C)NC(=O)[C@H](C)NC(=O)[C@H](CO)NC(=O)[C@H](CO)NC(=O)[C@H](Cc1ccccc1)NC(=O)[C@H](C)NC(=O)[C@H](C)NC(=O)[C@H](Cc1ccc(O)cc1)NC(=O)[C@H](CC(=O)O)NC(=O)[C@H](CC(C)C)NC(=O)[C@H](C)NC(=O)CNC(=O)[C@@H]1CCCN1C(=O)[C@@H](NC(=O)CCCC[C@@H]1SC[C@@H]2NC(=O)N[C@@H]21)C(C)C)C(=O)O [a-actinin 2] (Biotin-VPGALDYAAFSSALYGESDL-OH; C-terminus assumed) | – | 1 (A450 nm 0-1) | – | 1 (A450 nm 0-1) | pKd ([1]; PDZ TAX IP2, PDZ Domain 1, titration of the PL peptide, read-out: Peptide Optimal Conc (Kd, dissociation constant)): 5.60; Classification ([4]; PDZ DLG1, PDZ Domain 1, 2): 1 (A450 nm 0-1) |
